Structures can show the parent of a compound that is named as a salt.
Legend:
[1] = Lipids screened for complexation with CPT (fluorescent microscopy; % bound); format: physicochemical; details: for % bound to CPT / Crystals: Table 1; for Crystals: lipid alone with CPT, fluorescent microscopy
Source text: (§1) In order to prepare LC-CPT (a liposomal preparation containing CPT within spherical lipid vesicles) various individual lipids were screened for complexation with CPT. […] CPT crystals and lipid/CPT complexes of >0.4 microns can be visualized under a fluorescent microscope (since CPT fluoresces due to its rigid ring structure). […] Therefore, the better a lipid complexes with CPT the less CPT crystals are formed, and the more lipid/CPT complexes are formed.
Drug/lipid Complex Preparation. CPT was mixed in ratios of from 2:1 to 25:1 w/w lipid:drug in chloroform-methanol (8:1). For studies where CPT was radiolabeled, approximately 0.02 uCi/ml [^3 H] CPT was added to the preparation. Trace quantities of ^14 C labeled cholesterol was added to samples requiring lipid labeling. For small samples, the lipids were dried in 12×75 mm culture tubes under a stream of nitrogen gas. For large samples, a rotavapor (Buchi RE140, Switzerland) was used to dry lipids in a 100 to 1000 ml round bottom flasks. […] For liposomal CPT 0.9% Nace was used. Preparations were screened for lipid entrapment by light and fluorescent microscopy (Nikon Labophot-2, Japan). […]
Lipids of varying carbon chain length, charge, and saturation, alone or in different combinations, were empirically screened for their ability to form liposomes incorporating CPT by fluorescent microscopy.

[2] = Complexation with CPT / liposome formation by fluorescent microscopy; format: physicochemical
Source text: as §1
Drug/lipid Complex Preparation. CPT was mixed in ratios of from 2:1 to 25:1 w/w lipid:drug in chloroform-methanol (8:1). For studies where CPT was radiolabeled, approximately 0.02 uCi/ml [^3 H] CPT was added to the preparation. Trace quantities of ^14 C labeled cholesterol was added to samples requiring lipid labeling. For small samples, the lipids were dried in 12×75 mm culture tubes under a stream of nitrogen gas. For large samples, a rotavapor (Buchi RE140, Switzerland) was used to dry lipids in a 100 to 1000 ml round bottom flasks. The lipophilic film was then vortexed in a Touch Mixer Model 231 (Fisher Scientific, Fair Lawn, N.J., U.S.A.) for one minute in sterile phosphate buffered saline (pH 7.4). For liposomal CPT 0.9% Nace was used. Preparations were screened for lipid entrapment by light and fluorescent microscopy (Nikon Labophot-2, Japan).
To increase the cytotoxic effects of LC-CPT relative to CPT, lipid must surround (encapsulate) the CPT to protect it from inactivation. Since the cytotoxicity of LC-CPT was similar to that of the free drug, the CPT was not encapsulated by the lipid (DO-NGPE). Encapsulation (and concomitant protection from inactivation) can be accomplished by surrounding CPT in a liposome (a unilamellar or multilamellar structure). […] Therefore, LC-CPT appears to only contain enough lipid to form micellar aggregates of CPT or to form a hydrophobic scaffold for CPT-CPT aggregation.
The inventors attempted to protect the CPT from inactivation by surrounding the existing DO-NGPE:CPT complex with a liposome (Table 3) or by adding another lipid to DO-NGPE to form a liposome. […]

[3] = Chromatographic evaluation of CPT in the liposome fraction; format: physicochemical; details: lipid used alone
Experimental: Chromatography. A 30 cm agarose 0.5M column is used to separate liposome-bound drug from free CPT. PBS is used as the mobile phase for all preparations. Twenty samples were collected in 3 mL aliquots for a total of 60 mLs. Fluorescence and scintigraphy were used to detect encapsulated and free drug. Fluorimetry. Aliquots of 20 μl from each collection tube were transferred to cuvets containing 2 ml methanol. Fluorimetry was performed as described by Hart et al. (Hart et al., 1969). Fluorescence was measured at an excitation wavelength of 370 nm and emission wavelength of 434 nm (Perkin-Elmer MPF44A, Norwalk, Conn., U.S.A.). Two ml of ethanol was used as a control for machine calibration.
Chromatographic evaluation confirmed that <5% of CPT was incorporated in the liposome fraction of the preparation, the rest presumably being solubilized or in small particles not detectable by fluorescence microscopy.
These observation led the present inventors to other negatively charged lipids. […] Chromatographic evaluation of these preparations confirmed again that <5% of CPT eluted with the liposome fraction, the rest of the drug eluting later in a large number of consecutive fractions. By differential centrifugation, the lipid-binding efficiency of cardiolipin was about 67% and that of DO-NGPE 97%. DO-NGPE-CPT was, therefore, selected for further biological and pharmacological studies.

[4] = Hertzberg et al., 1989; cited from earlier work
human tumors = details: cited from earlier work

% bound to CPT [1] [%] | Crystals [1] | SMILES | also measured
– | – | CCCCCCCC/C=C\CCCCCCCC(=O)OCC(C[N+](C)(C)C)OC(=O)CCCCCCC/C=C\CCCCCCCC (stereo not shown) [DOTAP, 1,2-Dioleoyl-3-Trimethylammonium-Propane] | complexation with CPT / liposome formation / CPT crystals (in words) [2]: complex well with CPT
< 5 | yes | CCCCCCCCCCCCCCCCCC(=O)OC[C@H](COP(=O)([O-])OCC[N+](C)(C)C)OC(=O)CCCCCCCCCCCCC [1-Stearoyl, 2-Myristdyl PC] | –
– | – | CCCCCCCC/C=C/CCCCCCCC(=O)OC[C@H](COP(=O)([O-])OCC[N+](C)(C)C)OC(=O)CCCCCCC/C=C/CCCCCCCC [Dielaidoyl PC] | complexation with CPT / liposome formation / CPT crystals (in words) [2]: complex well with CPT
< 5 | yes | CCCCCCCCCCCCCC(=O)OC[C@H](COP(=O)(O)OCC(O)CO)OC(=O)CCCCCCCCCCCCC (mixture of isomers) [Dimyristoyl PG, 1,2-Dimyristoyl-sn-Glycero-3-[Phospho-rac-(1-glycerol)]] | –
< 5 | no | CCCCCCCC/C=C\CCCCCCCC(=O)OC[C@H](COP(=O)(O)OCC(O)CO)OC(=O)CCCCCCC/C=C\CCCCCCCC (mixture of isomers) [Dioleoyl PG, 1,2-Dioleoyl-sn-Glycero-3-[Phospho-rac-(1-glycerol)]] | interaction with CPT (in words) [1]: lack of drug crystallization; CPT incorporated in / eluted with the liposome fraction [3]: < 5%
– | – | CC[C@@](O)(C(=O)O)c1cc2n(c(=O)c1CO)Cc1cc3ccccc3nc1-2 [sodium salt of CPT, camptothecin sodium] | activity relative to closed lactone ring base (in words) [4]: significantly less active than the lipophilic base compound; dose-limiting toxicity (human tumors; clinical trials, early 1970's): dose-limiting leukopenia, cystitis, and gastroenteritis; clinical antitumor activity (in words) (human tumors; intestinal tumors metastatic to the liver): demonstrated activity in human tumors
– | – | CCCCCCCC/C=C\CCCCCCCC(=O)OC[C@H](COP(=O)(O)OCCN)OC(=O)CCCCCCC/C=C\CCCCCCCC [DOPE, 1,2-Dioleoyl-sn-Glycero-3-Phosphoethanolamine] | complexation with CPT / liposome formation / CPT crystals (in words) [2]: complex well with CPT
< 5 | yes | CCCCCCCC/C=C\CCCCCCCC(=O)O[C@H](COC(=O)CCCCCCCCCCCCCCCCC)COP(=O)([O-])OCC[N+](C)(C)C [1-Stearoyl, 2-Oleoyl PC] | –

SMILES | % bound to CPT [1] [%] | Crystals [1] | also measured
CCCCCCCCCCCCCC(=O)OC[C@H](COP(=O)([O-])OCC[N+](C)(C)C)OC(=O)CCCCCCCCCCCCC [Dimyristoyl PC, 1,2-Dimyristoyl-sn-Glycero-3-Phosphocholine] | < 5 | yes | –
CCCCCCCCCCCCCCCCCC(=O)OC[C@H](COP(=O)([O-])OCC[N+](C)(C)C)OC(=O)CCCCCCCCCCCCCCCCC [Distearoyl PC] | < 5 | yes | –
CCCCCC(=O)OC[C@H](COP(=O)([O-])OCC[N+](C)(C)C)OC(=O)CCCCC [Dicaproyl PC] | < 5 | yes | –

— patent publication US5834012A, “Lipid complexed topoisomerase I inhibitors” (Perez-Soler; Roman, priority 1995, dated 1998)
